According to patent US20220273759A1, “PHARMACEUTICAL ASSOCIATION FOR CONVERTING A NEOPLASTIC CELL INTO A NON-NEOPLASTIC CELL AND USES THEREOF” (HISTIDE AG, priority 2015, published 2022):

What was measured:
[1] = system: Smad1/5/8 signaling pathway; assay: Growth factor receptor activation: western blot quantification of phospho-smad1/5/8; type: cell-based; details: Table 4; human osteosarcoma cells MG63; quantification of western blots of phospho-smad1/5/8
Protocol: After 24 hours of culture, cells were permeabilized (10% SDS, 25 mM NaCl, 10 nM pepstatin and 10 nM leupeptin in distilled water and loading buffer), boiled for 10 minutes and resolved by reducing PAGE (Invitrogen). Proteins were transferred onto nitrocellulose, blocked, and labeled with HRP-conjugated antibodies (Invitrogen). Integrin αv, α5, +3, α4, β1, β3, β5 and […] were blotted by treating the nitrocellulose with monoclonal anti-integrin (extracellular domain) αv, α5, +3, α4, β1, β3, β5 and β6 antibodies (Santa Cruz Biotechnology). Phosphor-Smad1/5/8 was blotted by treating the nitrocellulose with monoclonal anti-p-Smad1/5/8 (Santa Cruz Biotechnology). For all of the experiments the western blot was performed in triplicate, along with an additional blot for actin and coomassie blue staining to ensure constant protein load among samples.

[2] = system: human osteosarcoma cells, MG63; assay: Tumor cell recoding via quantification of pRB and p53 (immunofluorescence staining, ImageJ); type: cell-based; details: MG63, quantification of pRB
Protocol: The cells were first fixed for 20 min with 4% paraformaldehyde/PBS at 4° C. After fixation, the cells were permeabilized in PBS containing 1% Triton X-100 for 15 min. Protein immunofluorescent visualization was performed by first treating the cells with 1% (v/v) specific monoclonal antibodies for 1 hour at 37° C. Then the samples were incubated with Alexa Fluor® 568 or 647 (F(ab′)2 fragment of IgG(H+L)) during 30 min at room temperature. The cell nuclei were counterstained in 20 ng/mL DAPI for 10 min at room temperature.
For this type of quantification the freeware image analysis ImageJ® software was used. The raw image was first converted to an 8-bit file, and then the unsharp mask feature was used (settings 1:0.2) to remove the image background (rolling ball radius 10). After smoothing, the resulting image, which appears similar to the original photomicrograph but with minimal background, was then converted to a binary image by setting a threshold. Threshold values were determined empirically by selecting a setting, which gave the most accurate binary image for a subset of randomly selected photomicrographs. The cell area was determined by manual delineation on raw fluorescent images. Total contact area and mean contact area per cell were calculated by “analyse particules” in ImageJ®. A minimum of 50 cells per condition were analyzed.
Neoplastic cells (in this example osteosarcoma cells) were cultured on pharmaceutical associations comprising PET as a bioactive carrier and one of GFR-binding compounds of SEQ ID NO: 11 to 14, 24 to 26 and 51 to 63. A rapid (24 hours) decrease of the tumor markers was observed (FIG. 7). The adhesion checkpoint then activates the tumor suppressor proteins p53 and pRB. […]

NDEGLESVPTEERSVKVAKV (Non-cyclic GFR-binding peptide) [SEQ ID NO: 91]
p-Smad1/5/8 (%) [1]: 55%
pRB (%) ([2]; Table 4): 12%
pRB (%) ([2]; Table 5): 12%

KVGKASSVPQKLEPLPIVYY (Non-cyclic GFR-binding peptide) [SEQ ID NO: 84]
p-Smad1/5/8 (%) [1]: 33%
pRB (%) ([2]; Table 4): 9%
pRB (%) ([2]; Table 5): 9%

RNVQSRPVPTQLSPISVLYK (Non-cyclic GFR-binding peptide) [SEQ ID NO: 86]
p-Smad1/5/8 (%) [1]: 26%
pRB (%) ([2]; Table 4): 24%
pRB (%) ([2]; Table 5): 24%

YVPKPSSTPTKLSPINMLYF (Non-cyclic GFR-binding peptide) [SEQ ID NO: 66]
p-Smad1/5/8 (%) [1]: 38%
pRB (%) ([2]; Table 4): 8%
pRB (%) ([2]; Table 5): 8%

KVGKASSVPTKLEPISILYL (Non-cyclic GFR-binding peptide) [SEQ ID NO: 71]
p-Smad1/5/8 (%) [1]: 66%
pRB (%) ([2]; Table 4): 17%
pRB (%) ([2]; Table 5): 17%

GIPEPSSVPQKMEPLPIVYY (Non-cyclic GFR-binding peptide) [SEQ ID NO: 75]
p-Smad1/5/8 (%) [1]: 51%
pRB (%) ([2]; Table 4): 10%
pRB (%) ([2]; Table 5): 10%

RNVQSRPTQVQLKPLSMLYV (Non-cyclic GFR-binding peptide) [SEQ ID NO: 73]
p-Smad1/5/8 (%) [1]: 48%
pRB (%) ([2]; Table 4): 16%
pRB (%) ([2]; Table 5): 16%

VVPKPSSAPTQLEPISILYL (Non-cyclic GFR-binding peptide) [SEQ ID NO: 69]
p-Smad1/5/8 (%) [1]: 39%
pRB (%) ([2]; Table 4): 20%
pRB (%) ([2]; Table 5): 20%

NDEGLESVPTEESAISMLYL (Non-cyclic GFR-binding peptide) [SEQ ID NO: 96]
p-Smad1/5/8 (%) [1]: 78%
pRB (%) ([2]; Table 4): 22%
pRB (%) ([2]; Table 5): 22%

GIPEPSSTPTKMSPINMLYF (Non-cyclic GFR-binding peptide) [SEQ ID NO: 94]
p-Smad1/5/8 (%) [1]: 39%
pRB (%) ([2]; Table 4): 9%
pRB (%) ([2]; Table 5): 9%

KIPKASSVPTELSPISVLYK (Non-cyclic GFR-binding peptide) [SEQ ID NO: 87]
p-Smad1/5/8 (%) [1]: 32%
pRB (%) ([2]; Table 4): 21%
pRB (%) ([2]; Table 5): 21%

SIPKASSTPTELSPINMLYF (Non-cyclic GFR-binding peptide) [SEQ ID NO: 64]
p-Smad1/5/8 (%) [1]: 37%
pRB (%) ([2]; Table 4): 23%
pRB (%) ([2]; Table 5): 23%

SSVKSQPSRVHHSPISILFI (Non-cyclic GFR-binding peptide) [SEQ ID NO: 97]
p-Smad1/5/8 (%) [1]: 39%
pRB (%) ([2]; Table 4): 14%
pRB (%) ([2]; Table 5): 14%

ASASPSSVSQDLEPLTILYY (Non-cyclic GFR-binding peptide) [SEQ ID NO: 78]
p-Smad1/5/8 (%) [1]: 52%
pRB (%) ([2]; Table 4): 18%
pRB (%) ([2]; Table 5): 18%

AVPKASSAPTKLEPISILYL (Non-cyclic GFR-binding peptide) [SEQ ID NO: 70]
p-Smad1/5/8 (%) [1]: 67%
pRB (%) ([2]; Table 4): 21%
pRB (%) ([2]; Table 5): 21%

ASASPSSVPQDLRSVKVAKV (Non-cyclic GFR-binding peptide) [SEQ ID NO: 90]
p-Smad1/5/8 (%) [1]: 56%
pRB (%) ([2]; Table 4): 9%
pRB (%) ([2]; Table 5): 9%

HVPKPSSAPTKLEPISILYL (Non-cyclic GFR-binding peptide) [SEQ ID NO: 100]
p-Smad1/5/8 (%) [1]: 75%
pRB (%) ([2]; Table 4): 19%
pRB (%) ([2]; Table 5): 19%

KASKASSVPQKLEPLPIVYY (Non-cyclic GFR-binding peptide) [SEQ ID NO: 85]
p-Smad1/5/8 (%) [1]: 22%
pRB (%) ([2]; Table 4): 10%
pRB (%) ([2]; Table 5): 10%

NDEGLESVPTEESSLSILFF (Non-cyclic GFR-binding peptide) [SEQ ID NO: 80]
p-Smad1/5/8 (%) [1]: 27%
pRB (%) ([2]; Table 4): 9%
pRB (%) ([2]; Table 5): 9%

SSVKSQPSRVHHKPLSMLYV (Non-cyclic GFR-binding peptide) [SEQ ID NO: 72]
p-Smad1/5/8 (%) [1]: 47%
pRB (%) ([2]; Table 4): 19%
pRB (%) ([2]; Table 5): 19%

TKPTSTPTKLSPINMLYF (Non-cyclic GFR-binding peptide) [SEQ ID NO: 65]
p-Smad1/5/8 (%) [1]: 36%
pRB (%) ([2]; Table 4): 10%
pRB (%) ([2]; Table 5): 10%
